Values after ≈ are worked out from the molar mass of the structure shown. Where a SMILES comes first, the peptide text is derived from it. Bridges are numbered along the chain shown (N, C = ends). [ ]: non-standard residue; d: D form. The star is where a group is joined. Phe(3,5-F2) = N[C@@H](Cc1cc(F)cc(F)c1)C(=O)O; Pro(4R-Me) = C[C@H]1CN[C@H](C(=O)O)C1; aThr = C[C@H](O)[C@H](N)C(=O)O; Pip = O=C(O)[C@@H]1CCCCN1; NMeA = CN[C@@H](C)C(=O)O; X1 = CCC/C=C/C=C/C(=O)*

One may read the MIC as the least concentration at which growth counts as inhibited.

Type in all cases: functional
The test system of test [1] is Staphylococcus aureus. In words: Antibacterial activity against Staphylococcus aureus ATCC 29213 incubated for 16 to 18 hrs by broth microdilution method.
Test [2] has as its system Staphylococcus aureus. Kind of test: Antibacterial activity against methicillin-resistant Staphylococcus aureus 1784A incubated for 16 to 18 hrs by broth microdilution method.
Test [3] relates to Neisseria meningitidis. In words: Antibacterial activity against Neisseria meningitidis H44/76 incubated for 16 to 18 hrs by broth microdilution method. For orientation: Broth dilution looks for growth in wells or tubes with falling amounts of substance.
The test system of test [4] is Escherichia coli. In words: Antibacterial activity against Escherichia coli MC4100 incubated for 16 to 18 hrs by broth microdilution method.
The next test has as its system Enterococcus faecalis. In words: Antibacterial activity against vancomycin-resistant Enterococcus faecalis V583 incubated for 16 to 18 hrs by broth microdilution method.
The subject of the next test is Streptococcus pneumoniae. Kind of test: Antibacterial activity against Streptococcus pneumoniae D39 incubated for 16 to 18 hrs by broth microdilution method.
Test [5] concerns Neisseria meningitidis. Kind of test: Antibacterial activity against clpP deficient Neisseria meningitidis H44/76 incubated for 16 to 18 hrs by broth microdilution method.
The next test has as its system Neisseria gonorrhoeae. Kind of test: Antibacterial activity against chloramphenicol-resistant Neisseria gonorrhoeae N.279 incubated for 16 to 18 hrs by broth microdilution method.
Test [6] has as its system Staphylococcus aureus. In words: Antibacterial activity against Staphylococcus aureus subsp. aureus Newman clinical isolate incubated for 16 to 18 hrs by broth microdilution method.
For test [7], the system named is Escherichia coli. Kind of test: Antibacterial activity against Escherichia coli MC4100 expressing lptD-4213 incubated for 16 to 18 hrs by broth microdilution method.
A further test deals with Bacillus subtilis. Kind of test: Antibacterial activity against Bacillus subtilis PY79 incubated for 16 to 18 hrs by broth microdilution method.
In the next test the test system is Listeria innocua. Kind of test: Antibacterial activity against Listeria innocua incubated for 16 to 18 hrs by broth microdilution method.
A further test has as its system Pseudomonas aeruginosa. Kind of test: Antibacterial activity against Pseudomonas aeruginosa PAO1 incubated for 16 to 18 hrs by broth microdilution method.

With `CCCC/C=C/C(=O)N[C@@H](Cc1cc(F)cc(F)c1)C(=O)N[C@@H]1C(=O)N2CCC[C@H]2C(=O)N2CCCC[C@H]2C(=O)N[C@@H](C)C(=O)N2C[C@H](C)C[C@H]2C(=O)O[C@H]1C`, the minimum inhibitory concentration (MIC) against Staphylococcus aureus [1] is 0.0039 µg/mL (≈ 0.00497 µM); against Staphylococcus aureus [2], 0.125 µg/mL (≈ 0.159 µM); in the test with Neisseria meningitidis [3], 0.0625 µg/mL (≈ 0.0796 µM); against Escherichia coli [4], greater than 128 µg/mL; against Enterococcus faecalis it was 0.0078 µg/mL (≈ 0.00994 µM); against Streptococcus pneumoniae, no more than 0.0625 µg/mL. The MIC in the test with Neisseria meningitidis [5] was greater than 128 µg/mL; against Neisseria gonorrhoeae, 0.0625 µg/mL (≈ 0.0796 µM); against Staphylococcus aureus [6], 0.0625 µg/mL (≈ 0.0796 µM); against Escherichia coli [7], greater than 128 µg/mL; against Bacillus subtilis, no more than 0.0625 µg/mL; against Listeria innocua it was no more than 0.0625 µg/mL. The MIC in the test on Pseudomonas aeruginosa was greater than 128 µg/mL.

As for `C[C@@H]1C[C@H]2C(=O)O[C@@H](C)[C@H](NC(=O)[C@H](Cc3cc(F)cc(F)c3)NC(=O)/C=C/CC3CCCCC3)C(=O)N3CCC[C@H]3C(=O)N3CCCC[C@H]3C(=O)N[C@@H](C)C(=O)N2C1`, the MIC in the test on Staphylococcus aureus [1] was 0.0078 µg/mL (≈ 0.00945 µM); with Staphylococcus aureus [2], 0.125 µg/mL (≈ 0.152 µM); with Neisseria meningitidis [3], 0.0625 µg/mL (≈ 0.0758 µM); in the test on Escherichia coli [4], greater than 128 µg/mL; with Enterococcus faecalis, 0.0078 µg/mL (≈ 0.00945 µM); in the test with Streptococcus pneumoniae, 0.0625 µg/mL (≈ 0.0758 µM). Besides, the minimum inhibitory concentration (MIC) against Neisseria meningitidis [5] was greater than 128 µg/mL; in the test on Neisseria gonorrhoeae it was 0.125 µg/mL (≈ 0.152 µM); against Staphylococcus aureus [6], 0.0625 µg/mL (≈ 0.0758 µM); in the test on Escherichia coli [7] it was greater than 128 µg/mL; against Bacillus subtilis, no more than 0.0625 µg/mL; against Listeria innocua, no more than 0.0625 µg/mL. The compound also yielded an MIC against Pseudomonas aeruginosa greater than 128 µg/mL.

Turning to `CCCC/C=C/C(=O)N[C@@H](Cc1cc(F)cc(F)c1)C(=O)N[C@@H]1C(=O)N2CCC[C@H]2C(=O)N2CC[C@H](C)C[C@H]2C(=O)N[C@@H](C)C(=O)N2C[C@H](C)C[C@H]2C(=O)O[C@H]1C`, the MIC against Staphylococcus aureus [1] is 0.0078 µg/mL (≈ 0.00976 µM); in the test on Staphylococcus aureus [2], 8 µg/mL (≈ 10 µM); against Neisseria meningitidis [3], 0.0625 µg/mL (≈ 0.0782 µM); against Escherichia coli [4], greater than 128 µg/mL; in the test on Enterococcus faecalis, 0.0156 µg/mL (≈ 0.0195 µM); against Streptococcus pneumoniae, no more than 0.0625 µg/mL. Further, the MIC was greater than 128 µg/mL in the test on Neisseria meningitidis [5]; 0.125 µg/mL (≈ 0.156 µM) against Neisseria gonorrhoeae; 0.25 µg/mL (≈ 0.313 µM) against Staphylococcus aureus [6]; greater than 128 µg/mL against Escherichia coli [7]; no more than 0.0625 µg/mL in the test with Bacillus subtilis; no more than 0.0625 µg/mL with Listeria innocua. In the test on Pseudomonas aeruginosa, this compound yielded an MIC greater than 128 µg/mL.

`CCC/C=C/C=C/C(=O)N[C@@H](Cc1ccccc1)C(=O)N[C@H]1COC(=O)[C@@H]2C[C@@H](C)CN2C(=O)[C@H](C)NC(=O)[C@H](C)N(C)C(=O)[C@@H]2CCCN2C1=O` (X1-FSP[NMeA]A[Pro(4R-Me)]; ester 2-C): the MIC against Staphylococcus aureus [1] is 0.5 µg/mL (≈ 0.694 µM); in the test with Staphylococcus aureus [2] it was 0.5 µg/mL (≈ 0.694 µM); in the test with Neisseria meningitidis [3], 0.0313 µg/mL (≈ 0.0434 µM); in the test on Escherichia coli [4], greater than 128 µg/mL; with Enterococcus faecalis, 0.125 µg/mL (≈ 0.173 µM); in the test on Streptococcus pneumoniae it was no more than 0.0625 µg/mL. The MIC with Neisseria meningitidis [5] was greater than 128 µg/mL; with Neisseria gonorrhoeae, 0.0156 µg/mL (≈ 0.0216 µM); with Staphylococcus aureus [6], 0.25 µg/mL (≈ 0.347 µM); with Escherichia coli [7] it was greater than 128 µg/mL; in the test with Bacillus subtilis it was 0.125 µg/mL (≈ 0.173 µM); in the test on Listeria innocua, no more than 0.0625 µg/mL. The MIC against Pseudomonas aeruginosa is greater than 128 µg/mL.

As to `CCC/C=C/C=C/C(=O)N[C@@H](Cc1cc(F)cc(F)c1)C(=O)N[C@@H]1C(=O)N2CCC[C@H]2C(=O)N2CCCC[C@H]2C(=O)N[C@@H](C)C(=O)N2C[C@H](C)C[C@H]2C(=O)O[C@H]1C` (X1-[Phe(3,5-F2)][aThr]P[Pip]A[Pro(4R-Me)]; ester 2-C), the MIC was 0.0019 µg/mL (≈ 0.00238 µM) against Staphylococcus aureus [1]; 0.125 µg/mL (≈ 0.157 µM) against Staphylococcus aureus [2]; 0.0313 µg/mL (≈ 0.0393 µM) in the test on Neisseria meningitidis [3]; greater than 128 µg/mL against Escherichia coli [4]; 0.0039 µg/mL (≈ 0.00489 µM) in the test on Enterococcus faecalis; no more than 0.0625 µg/mL with Streptococcus pneumoniae. For the same compound, the MIC is greater than 128 µg/mL with Neisseria meningitidis [5]; 0.0078 µg/mL (≈ 0.00979 µM) in the test on Neisseria gonorrhoeae; 0.0625 µg/mL (≈ 0.0784 µM) with Staphylococcus aureus [6]; 4 µg/mL (≈ 5.02 µM) against Escherichia coli [7]; no more than 0.0625 µg/mL with Bacillus subtilis; no more than 0.0625 µg/mL in the test with Listeria innocua. Further, the MIC against Pseudomonas aeruginosa is greater than 128 µg/mL.

As to `O=C(N[C@H](CO)[C@H](O)c1ccc([N+](=O)[O-])cc1)C(Cl)Cl` [CHLORAMPHENICOL], the MIC in the test with Neisseria meningitidis [3] was determined as 0.5 µg/mL (≈ 1.55 µM); against Escherichia coli [4], 3.1 µg/mL (≈ 9.59 µM); against Neisseria meningitidis [5], 1 µg/mL (≈ 3.09 µM); against Neisseria gonorrhoeae it was 64 µg/mL (≈ 198 µM); with Escherichia coli [7] it was 2 µg/mL (≈ 6.19 µM); against Pseudomonas aeruginosa it was 8 µg/mL (≈ 24.8 µM).
